Laboratory results: patent publication US20140171357A1, “VANCOMYCIN DERIVATIVES” (Seachald Pharmaceuticals, Inc., priority 2011, published 2014)
Values after ≈ are worked out from the molar mass of the structure shown.

What was measured:
[1] = test system: β-hemolytic streptococci (23); test: MIC broth microdilution, β-hemolytic streptococci; conditions: β-hemolytic streptococci (23); MHB + lysed horse blood
[2] = test system: vancomycin-intermediate S. aureus (VISA, 5); test: MIC broth microdilution, VISA
S. aureus ATCC 25923 = test: Neutropenic murine thigh infection model; conditions: for AUCc-t (AUC difference between control and treated animals): 24 h time kill
[3] = test system: vancomycin-susceptible E. faecalis (23); test: MIC broth microdilution, vancomycin-susceptible E. faecalis; conditions: E. faecalis, vancomycin-susceptible (23)
[4] = test system: vancomycin-resistant S. aureus (VRSA, 6); test: MIC broth microdilution, VRSA
S. pneumoniae (22) = test: MIC broth microdilution, S. pneumoniae; conditions: S. pneumoniae (22); MHB + lysed horse blood
[5] = test system: Staphylococcus aureus (65 strains); test: MIC broth microdilution, S. aureus all isolates; conditions: S. aureus (65), all resistance subsets
[6] = test system: VanA vancomycin-resistant E. faecalis (11); test: MIC broth microdilution, VanA E. faecalis; conditions: E. faecalis, VanA (11)
VanC enterococci (22) = test: MIC broth microdilution, vanC-carrying enterococci; conditions: VanC enterococci (22)
[7] = test system: VanB vancomycin-resistant E. faecalis (12); test: MIC broth microdilution, VanB E. faecalis; conditions: E. faecalis, VanB (12)
[8] = test system: heterogeneous VISA (hVISA, 10); test: MIC broth microdilution, hVISA
[9] = test system: vancomycin-susceptible E. faecium (21); test: MIC broth microdilution, vancomycin-susceptible E. faecium; conditions: E. faecium, vancomycin-susceptible (21)
[10] = test system: VanA vancomycin-resistant E. faecium (10); test: MIC broth microdilution, VanA E. faecium; conditions: E. faecium, VanA (10)
[11] = test system: Staphylococcus epidermidis (43 strains); test: MIC broth microdilution, S. epidermidis; conditions: S. epidermidis (43)
[12] = test system: VanB vancomycin-resistant E. faecium (10); test: MIC broth microdilution, VanB E. faecium; conditions: E. faecium, VanB (10)
[13] = test system: methicillin-resistant S. aureus (MRSA, 22); test: MIC broth microdilution, MRSA; conditions: MRSA (22)
[14] = test system: methicillin-susceptible S. aureus (MSSA, 22); test: MIC broth microdilution, MSSA; conditions: MSSA (22)
[15] = 1 mg/kg single intraperitoneal dose
[16] = 4 mg/kg single intraperitoneal dose
[17] = 16 mg/kg single intraperitoneal dose

## CNC(CC(C)C)C(=O)NC1C(=O)NC(CC(N)=O)C(=O)NC2C(=O)NC3C(=O)NC(C(=O)NC(C(=O)O)c4cc(O)c(CNCCOCCOCC[N+](C)(C)C)c(O)c4-c4cc3ccc4O)C(O)c3ccc(c(Cl)c3)Oc3cc2cc(c3OC2OC(CO)C(O)C(O)C2OC2CC(C)(NCc3ccc(-c4ccc(Cl)cc4)cc3)C(O)C(C)O2)Oc2ccc(cc2Cl)C1O (stereo not drawn) [Compound 13]
[1]
  MIC 50%: 0.06 µg/mL
  MIC 90%: 0.06 µg/mL
[2]
  MIC 50%: 0.5 µg/mL
S. aureus ATCC 25923; [15]
  Max Kill (maximum decrease from initial infection level): 0.9 Log10 CFU/thigh
  AUCc-t (AUC difference between control and treated animals): 12.6 (Log10 CFU/thigh)/hr
S. aureus ATCC 25923; [16]
  Max Kill (maximum decrease from initial infection level): 0.28 Log10 CFU/thigh
  AUCc-t (AUC difference between control and treated animals): 20.6 (Log10 CFU/thigh)/hr
S. aureus ATCC 25923; [17]
  Max Kill (maximum decrease from initial infection level): 0.02 Log10 CFU/thigh
  AUCc-t (AUC difference between control and treated animals): 29.5 (Log10 CFU/thigh)/hr
[3]
  MIC 50%: 0.25 µg/mL
  MIC 90%: 0.25 µg/mL
[4]
  MIC 50%: 8 µg/mL
S. pneumoniae (22)
  MIC 50%: 0.06 µg/mL
  MIC 90%: 0.12 µg/mL
[5]
  MIC 50%: 0.12 µg/mL
  MIC 90%: 0.5 µg/mL
[6]
  MIC 50%: 8 µg/mL
  MIC 90%: 16 µg/mL
VanC enterococci (22)
  MIC 50%: 0.25 µg/mL
  MIC 90%: 1 µg/mL
[7]
  MIC 50%: 0.25 µg/mL
  MIC 90%: 0.5 µg/mL
[8]
  MIC 50%: 0.12 µg/mL
  MIC 90%: 0.12 µg/mL
[9]
  MIC 50%: 0.12 µg/mL
  MIC 90%: 0.12 µg/mL
[10]
  MIC 50%: 2 µg/mL
  MIC 90%: 4 µg/mL
[11]
  MIC 50%: 0.12 µg/mL
  MIC 90%: 0.12 µg/mL
[12]
  MIC 50%: 0.12 µg/mL
  MIC 90%: 0.12 µg/mL
[13]
  MIC 50%: 0.12 µg/mL
  MIC 90%: 0.12 µg/mL
[14]
  MIC 50%: 0.12 µg/mL
  MIC 90%: 0.25 µg/mL

## CNC(CC(C)C)C(=O)NC1C(=O)NC(CC(N)=O)C(=O)NC2C(=O)NC3C(=O)NC(C(=O)NC(C(=O)O)c4cc(O)c(CNCCOCCOCCN(C)C)c(O)c4-c4cc3ccc4O)C(O)c3ccc(c(Cl)c3)Oc3cc2cc(c3OC2OC(CO)C(O)C(O)C2OC2CC(C)(NCc3ccc(-c4ccc(Cl)cc4)cc3)C(O)C(C)O2)Oc2ccc(cc2Cl)C1O (stereo not drawn) [Compound 12]
[1]
  MIC 50%: 0.06 µg/mL
  MIC 90%: 0.06 µg/mL
[2]
  MIC 50%: 0.25 µg/mL (≈ 0.136 µM)
S. aureus ATCC 25923; [15]
  Max Kill (maximum decrease from initial infection level): 1.1 Log10 CFU/thigh
  AUCc-t (AUC difference between control and treated animals): 6.1 (Log10 CFU/thigh)/hr
S. aureus ATCC 25923; [16]
  Max Kill (maximum decrease from initial infection level): −0.03 Log10 CFU/thigh
  AUCc-t (AUC difference between control and treated animals): 17.6 (Log10 CFU/thigh)/hr
S. aureus ATCC 25923; [17]
  Max Kill (maximum decrease from initial infection level): 0.0005 Log10 CFU/thigh
  AUCc-t (AUC difference between control and treated animals): 29.3 (Log10 CFU/thigh)/hr
[3]
  MIC 50%: 0.25 µg/mL (≈ 0.136 µM)
  MIC 90%: 0.25 µg/mL (≈ 0.136 µM)
[4]
  MIC 50%: 8 µg/mL (≈ 4.35 µM)
S. pneumoniae (22)
  MIC 50%: 0.06 µg/mL
  MIC 90%: 0.06 µg/mL
[5]
  MIC 50%: 0.12 µg/mL (≈ 0.0653 µM)
  MIC 90%: 0.5 µg/mL (≈ 0.272 µM)
[6]
  MIC 50%: 8 µg/mL (≈ 4.35 µM)
  MIC 90%: 16 µg/mL (≈ 8.7 µM)
VanC enterococci (22)
  MIC 50%: 0.25 µg/mL (≈ 0.136 µM)
  MIC 90%: 0.5 µg/mL (≈ 0.272 µM)
[7]
  MIC 50%: 0.25 µg/mL (≈ 0.136 µM)
  MIC 90%: 0.25 µg/mL (≈ 0.136 µM)
[8]
  MIC 50%: 0.12 µg/mL (≈ 0.0653 µM)
  MIC 90%: 0.12 µg/mL (≈ 0.0653 µM)
[9]
  MIC 50%: 0.12 µg/mL (≈ 0.0653 µM)
  MIC 90%: 0.12 µg/mL (≈ 0.0653 µM)
[10]
  MIC 50%: 2 µg/mL (≈ 1.09 µM)
  MIC 90%: 4 µg/mL (≈ 2.18 µM)
[11]
  MIC 50%: 0.06 µg/mL (≈ 0.0326 µM)
  MIC 90%: 0.12 µg/mL (≈ 0.0653 µM)
[12]
  MIC 50%: 0.12 µg/mL (≈ 0.0653 µM)
  MIC 90%: 0.12 µg/mL (≈ 0.0653 µM)
[13]
  MIC 50%: 0.12 µg/mL (≈ 0.0653 µM)
  MIC 90%: 0.12 µg/mL (≈ 0.0653 µM)
[14]
  MIC 50%: 0.12 µg/mL (≈ 0.0653 µM)
  MIC 90%: 0.12 µg/mL (≈ 0.0653 µM)
